{"source": "patent US20250099596A1", "about": "“TETRAHYDRONAPHTHALENE COMPOUND, AND PREPARATION METHOD THEREFOR AND USE THEREOF IN MEDICINE” (Jiangsu Hengrui Pharmaceuticals Co., Ltd., priority 2021, published 2025)", "key": {"[1]": {"test": "Pharmacokinetic evaluation, C57 mouse test", "type": "in vivo", "conditions": "C57 mice; for AUC(0-t): read-out: Area under curve AUC0-t; for half-life: read-out: Half-life T1/2 (converted); for Cmax: read-out: Plasma concentration Cmax", "procedure": "(§1) With C57 mice as test animals, the plasma concentration of the compound of Example 26-1 was determined by LC/MS/MS at different time points after intragastric (i.g.)/intravenous (i.v.) administration to C57 mice. The pharmacokinetic behavior of the compound of the present disclosure in C57 mice was studied and its pharmacokinetic profile was evaluated.\nEighteen female C57 mice were evenly divided into 2 groups and fasted overnight, and the 2 groups were dosed intragastrically and intravenously, respectively. The mice were provided by Zhejiang Vital River Laboratory Animal Technology Co., Ltd.\nAn appropriate amount of the compound of Example 26-1 was weighed out and mixed with 5% DMSO+5% Tween 80+90% normal saline to make a 0.1 mg/mL colorless clear solution (for the intragastric administration group) and a 0.1 mg/mL colorless clear solution (for the intravenous administration group).\nThe intragastric administration group: the dose was 2.0 mg/kg, and the volume was 0.2 mL/10 g.\nThe intravenous administration group: the dose was 1.0 mg/kg, and the volume was 0.1 mL/10 g.\n(§2) The intragastric administration group: Blood (0.1 mL) was collected into EDTA-K2 anticoagulation tubes before administration and 0.25 h, 0.5 h, 1.0 h, 2.0 h, 4.0 h, 6.0 h, 8.0 h, 11.0 h and 24.0 h after administration and centrifuged at 10,000 rpm for 1 min (4° C.). The plasma was separated within 1 h and stored at −20° C. before analysis. The process from blood collection to centrifugation was performed in an ice bath. Two hours after administration, feeding was resumed.\nThe intravenous administration group: Blood was collected before administration and 5 min, 15 min, 0.5 h, 1.0 h, 2.0 h, 4.0 h, 8.0 h, 11.0 h and 24 h after administration and processed as in the intragastric administration group.\nThe plasma concentration of the test compound was determined after administration of different concentrations of the test compound to C57 mice: plasma samples (25 μL) were collected from C57 mice at various time points after administration, proteins were precipitated with 200 μL of acetonitrile, and 50 μL of camptothecin (100 ng/mL) was added. The mixtures were vortexed for 5 min and centrifuged at 4000 rpm for 10 min. […] of supernatant was collected for LC-MS/MS analysis."}, "[2]": {"test": "Pharmacokinetic evaluation, beagle test", "type": "in vivo", "conditions": "beagles; for AUC(0-t): read-out: Area under curve AUC0-t; for half-life: read-out: Half-life T1/2 (converted); for Cmax: read-out: Plasma concentration Cmax", "procedure": "as §1, with “With beagles” for “With C57 mice”, “plasma concentrations” for “plasma concentration”, “26-1 and Comparative Example 1 were” for “26-1 was”, “to beagles.” for “to C57 mice.”, “in beagles” for “in C57 mice”\nThe compound of Example 26-1 and Comparative Example 1 (see patent WO2018102725A1, Example 411), whose structure is shown below:\nSixteen beagles, of which half were male and half female, were evenly divided into 4 groups. The beagles were provided by Shanghai Medicilon Inc. The 4 groups were fasted overnight and then dosed intragastrically and intravenously.\nCertain amounts of the compound of Example 26-1 and the compound of Comparative Example 1 were weighed out and mixed with 5% (v/v) DMSO+30% (v/v) PG+30% (v/v) PEG400+35% (v/v) normal saline to make 0.4 mg/mL clear solutions (for the intragastric administration groups) and 0.25 mg/mL clear solutions (for the intravenous administration groups).\nThe intragastric administration groups: the dose was 2.0 mg/kg, and the volume was 5.0 mL/kg.\nThe intravenous administration groups: the dose was 0.5 mg/kg, and the volume was 2.0 mL/kg.\nas §2, with “Blood (1.0” for “Blood (0.1”, “collected from the jugular vein or the forelimb vein” for “collected”, “h, 12.0” for “h, 11.0”, “for 5” for “for 1”, “at −80°” for “at −20°”, “bath. Three” for “bath. Two”\nThe intravenous administration groups: Blood was collected before administration and 5 min, 0.25 h, 0.5 h, 1.0 h, 2.0 h, 4.0 h, 8.0 h, 12.0 h and 24 h after administration and processed as in the intragastric administration groups.\nThe plasma concentrations of the test compounds were determined after administration of different concentrations of the test compounds to beagles: plasma samples (50 μL) were collected from beagles at various time points after administration, and proteins were precipitated with 500 μL of methanol (containing 100 ng/mL internal standard Verapamil) for each of the samples; the mixtures were vortexed for 1 min and centrifuged at 18,000 g for 7 min. 500 μL of supernatant was transferred to a 96-well plate. 1 μL of supernatant was collected for LC/MS/MS analysis."}, "[3]": {"conditions": "female, mouse, plasma, iv, i.v., 1.0 mg/kg"}, "[4]": {"conditions": "female, mouse, plasma, po, i.g., 2.0 mg/kg"}, "[5]": {"conditions": "both sexes, beagle, dog, plasma, iv, i.v., 0.5 mg/kg"}, "[6]": {"conditions": "both sexes, beagle, dog, plasma, po, i.g., 2.0 mg/kg"}}, "data": [{"compound": "CC(C)C[C@H]1CCc2cc(O)ccc2[C@H]1c1ccc(N2CCC(CN3CCN(c4ccc5c(c4)CN([C@H]4CCC(=O)NC4=O)C5=O)CC3)CC2)cc1", "note": "[Example 26-1, (S)-3-(5-(4-((1-(4-((1R,2R)-6-Hydroxy-2-isobutyl-1,2,3,4-tetrahydronaphthalen-1-yl)phenyl)piperidin-4-yl)methyl)piperazin-1-yl)-1-oxoisoindolin-2-yl)piperidine-2,6-dione]", "values": [{"measurement": "Clearance CL/F", "setting": "[1]; i.v., 1.0 mg/kg", "value": 15.4, "unit": "mL/min/kg"}, {"measurement": "AUC(0-t)", "setting": "[1]; [3]", "value": 1070, "unit": "ng·h/mL"}, {"measurement": "half-life", "setting": "[1]; [3]", "value": 4, "unit": "h"}, {"measurement": "Cmax", "setting": "[1]; [3]", "value": 1220, "unit": "ng/mL"}, {"measurement": "Vd/F", "setting": "[1]; female, mouse, plasma, po, i.g., 2.0 mg/kg, read-out: Apparent distribution volume Vz/F", "value": 28.3, "unit": "L/kg"}, {"measurement": "AUC(0-t)", "setting": "[1]; [4]", "value": 517, "unit": "ng·h/mL"}, {"measurement": "CL/F", "setting": "[1]; female, mouse, plasma, po, i.g., 2.0 mg/kg, read-out: Clearance CL/F", "value": 62.1, "unit": "mL/min/kg"}, {"measurement": "half-life", "setting": "[1]; [4]", "value": 5.3, "unit": "h"}, {"measurement": "Cmax", "setting": "[1]; [4]", "value": 59, "unit": "ng/mL"}, {"measurement": "Clearance CL/F", "setting": "[2]; i.v., 0.5 mg/kg", "value": 1.7, "unit": "mL/min/kg"}, {"measurement": "AUC(0-t)", "setting": "[2]; [5]", "value": 4070, "unit": "ng·h/mL"}, {"measurement": "half-life", "setting": "[2]; [5]", "value": 9.7, "unit": "h"}, {"measurement": "Cmax", "setting": "[2]; [5]", "value": 1600, "unit": "ng/mL"}, {"measurement": "Vd/F", "setting": "[2]; both sexes, beagle, dog, plasma, po, i.g., 2.0 mg/kg, read-out: Apparent distribution volume Vz/F", "value": 5.67, "unit": "L/kg"}, {"measurement": "AUC(0-t)", "setting": "[2]; [6]", "value": 4820, "unit": "ng·h/mL"}, {"measurement": "CL/F", "setting": "[2]; both sexes, beagle, dog, plasma, po, i.g., 2.0 mg/kg, read-out: Clearance CL/F", "value": 6.2, "unit": "mL/min/kg"}, {"measurement": "half-life", "setting": "[2]; [6]", "value": 10.4, "unit": "h"}, {"measurement": "Cmax", "setting": "[2]; [6]", "value": 436, "unit": "ng/mL"}]}]}
